Earlier results on one molecule are cited in patent US6601275B2, “Method and composition for embalming” (United Biotechnologies, L.L.C., priority 2000, dated 2003).

Consider `C=O` [formaldehyde], for which, under “airborne”, the “airborne concentration causing irritation of the eyes nose and throat” value is “above 0.1 ppm”; the “airborne concentration immediately dangerous to life and health” value is listed as 100 ppm. The carcinogenicity result (human) is on record as “potential human carcinogen”.
